Reference: PMC9791652 (Journal of Medicinal Chemistry, 2022)
Values after ≈ are worked out from the molar mass of the structure shown. Like-named read-outs stand apart in the source and are kept apart here.

Key:
H37Rv = type: cell-based, Mycobacterium tuberculosis
Mtb H37Rv ATP levels = experiment: Impact of TriSLa exposure on Mtb ATP levels; type: cell-based, Mycobacterium tuberculosis; details: 24 h exposure
[1] = tested on: streptomycin starved 18b nonreplicating Mtb (ss18b-lux); type: cell-based, Mycobacterium tuberculosis; details: for drop in bacterial counts (cfu) of ss18b-lux: 7 days of exposure; for bactericidal activity against nonreplicating ss18b-lux by cfu counting: 7 days of antibiotic exposure
[2] = tested on: noninfected zebrafish larvae; details: data not shown
[3] = tested on: M. marinum (expressing Wasabi) infected zebrafish larvae; type: in vivo; details: for lowest dose significantly prolonging survival of infected zebrafish: 4-day exposure in water, refreshed daily, 1 to 5 dpi
[4] = tested on: Escherichia coliΔtolC (BW25113 ΔtolC); experiment: organism not typed; type: cell-based
physchem = details: pH 7.4
[5] = tested on: Mtb H37Rv NADH/NAD+ ratio; experiment: Impact of TriSLa exposure on Mtb NADH and NAD+ levels; type: cell-based, Mycobacterium tuberculosis
[6] = mouse liver microsomes

Compound	bacterial ATP concentrations (Mtb H37Rv ATP levels)	ss18b-lux luminescence signal [1]	bactericidal activity against nonreplicating ss18b-lux by cfu counting [1]	toxicity in noninfected zebrafish larvae [2]	lowest dose significantly prolonging survival of infected zebrafish [3] [µM]	MIC [4] [µM]	further results
CC(C)[C@H]1CO[C@]23CCN(Cc4ccc(OC(F)(F)F)cc4)C[C@H]2CCC(=O)N13 [Compound 12, (3S,7aR,11aR)-3-Isopropyl-9-[[4-(trifluoromethoxy)phenyl]methyl]-2,3,6,7,7a,8,10,11-octahydrooxazolo[2,3-j][1,6]naphthyridin-5-one]	concentration-dependent shutdown in bacterial ATP concentrations	time-dependent decrease in luminescence	concentration-dependent killing	did not interfere with larval development or show any toxicity	0.3	100 (≈ 41.2 µg/mL)	bactericidal activity by cfu at 1× MIC (H37Rv): bacteriostatic; drop in cfu after 1 week (H37Rv): ~0.8 log; drop in cfu after 2 weeks (H37Rv): ~2.0 log; drop in bacterial counts (cfu) of ss18b-lux ([1]; 4.8 μM): 1–2 log; bacterial load (fluorescence pixel count) in infected zebrafish ([3]; 0.5 μg/mL ([…]), 2–4 days of exposure): bacteriostatic; bacterial load (fluorescence pixel count) in infected zebrafish ([3]; 2 μg/mL (4.8 μM), between 2 and 4 days of exposure): significant decrease in the bacterial burden; infection foci in fluorescence images ([3]; 0.25 to 2 μg/mL (0.6–4.8 μM), 2 or 4-day treatment): fewer and less intense infection foci; logD (physchem): 3.4
COc1nc2ccc(Br)cc2cc1[C@@H](c1ccccc1)[C@@](O)(CCN(C)C)c1cccc2ccccc12 [bedaquiline]	concentration-dependent shutdown in bacterial ATP concentrations	time-dependent decrease in luminescence	bactericidal				Mtb NADH/NAD+ ratio relative to untreated bacteria [5]: increase in the NADH/NAD^+ ratio; bactericidal activity by cfu at 1× and 2× MIC (H37Rv; H37Rv, 1× and 2× MIC (250 and 500 nM), 2 week exposure period): largely bacteriostatic; drop in bacterial counts (cfu) of ss18b-lux ([1]; 1 μM, stated as similar to 11 and 12 at 4.8 μM): 1–2 log
CC(C)[C@H]1CO[C@]23CCN(Cc4ccc(C(F)(F)F)nc4)C[C@H]2CCC(=O)N13 [Compound 13, (3S,7aR,11aR)-3-Isopropyl-9-[[6-(trifluoromethyl)-3-pyridyl]methyl]-2,3,6,7,7a,8,10,11-octahydrooxazolo[2,3-j][1,6]naphthyridin-5-one]				did not interfere with larval development or show any toxicity	1.2		
NNC(=O)c1ccncc1 [isoniazid]		increase in luminescence	no significant bactericidal activity				
CC(C)[C@H]1CO[C@]23CCN(Cc4ccccc4)C[C@H]2CCC(=O)N13 [Compound 1, (3S,7aR,11aR)-9-Benzyl-3-isopropyl-2,3,6,7,7a,8,10,11-octahydrooxazolo[2,3-j][1,6]naphthyridin-5-one]						> 100	metabolic stability (in words) [6]: high clearance
CO[C@H]1/C=C/O[C@@]2(C)Oc3c(C)c(O)c4c(O)c(c(/C=N/N5CCN(C)CC5)c(O)c4c3C2=O)NC(=O)/C(C)=C\C=C\[C@H](C)[C@H](O)[C@@H](C)[C@@H](O)[C@@H](C)[C@H](OC(C)=O)[C@@H]1C [rifampicin]		time-dependent decrease in luminescence	bactericidal				Mtb NADH/NAD+ ratio relative to untreated bacteria [5]: decrease in NADH/NAD^+; drop in bacterial counts (cfu) of ss18b-lux ([1]; 0.6 μM, stated as similar to 11 and 12 at 4.8 μM): 1–2 log
CC(C)[C@H]1CO[C@]23CCN(Cc4ccc(C(F)(F)F)cc4)C[C@H]2CCC(=O)N13 [Compound 11, (3S,7aR,11aR)-3-Isopropyl-9-[[4-(trifluoromethyl)phenyl]methyl]-2,3,6,7,7a,8,10,11-octahydrooxazolo[2,3-j][1,6]naphthyridin-5-one]	concentration-dependent shutdown in bacterial ATP concentrations	time-dependent decrease in luminescence	concentration-dependent killing	did not interfere with larval development or show any toxicity	0.3	100 (≈ 39.6 µg/mL)	bactericidal activity by cfu at 1× MIC (H37Rv): bacteriostatic; drop in cfu after 1 week (H37Rv): ~0.8 log; drop in cfu after 2 weeks (H37Rv): ~2.0 log; drop in bacterial counts (cfu) of ss18b-lux ([1]; 4.8 μM): 1–2 log; logD (physchem): 3.9
